Here are results for one substance from PMC3062711 (Biochimica et biophysica acta, 2010).

For this experiment, the target named is human TRPA1 channel (hTRPA1) (Homo sapiens, UniProt O75762). Briefly: inside-out patch clamp recording, hTRPA1 expressed in HEK293T cells. The class given is cell-based. (In general: In patch-clamp work, channel activity is measured electrically.)

As a reminder, the IC50 is the midpoint of a concentration-inhibition curve. A low value points to higher potency.

human TRPA1 channel (hTRPA1), sequence (O75762 whole entry): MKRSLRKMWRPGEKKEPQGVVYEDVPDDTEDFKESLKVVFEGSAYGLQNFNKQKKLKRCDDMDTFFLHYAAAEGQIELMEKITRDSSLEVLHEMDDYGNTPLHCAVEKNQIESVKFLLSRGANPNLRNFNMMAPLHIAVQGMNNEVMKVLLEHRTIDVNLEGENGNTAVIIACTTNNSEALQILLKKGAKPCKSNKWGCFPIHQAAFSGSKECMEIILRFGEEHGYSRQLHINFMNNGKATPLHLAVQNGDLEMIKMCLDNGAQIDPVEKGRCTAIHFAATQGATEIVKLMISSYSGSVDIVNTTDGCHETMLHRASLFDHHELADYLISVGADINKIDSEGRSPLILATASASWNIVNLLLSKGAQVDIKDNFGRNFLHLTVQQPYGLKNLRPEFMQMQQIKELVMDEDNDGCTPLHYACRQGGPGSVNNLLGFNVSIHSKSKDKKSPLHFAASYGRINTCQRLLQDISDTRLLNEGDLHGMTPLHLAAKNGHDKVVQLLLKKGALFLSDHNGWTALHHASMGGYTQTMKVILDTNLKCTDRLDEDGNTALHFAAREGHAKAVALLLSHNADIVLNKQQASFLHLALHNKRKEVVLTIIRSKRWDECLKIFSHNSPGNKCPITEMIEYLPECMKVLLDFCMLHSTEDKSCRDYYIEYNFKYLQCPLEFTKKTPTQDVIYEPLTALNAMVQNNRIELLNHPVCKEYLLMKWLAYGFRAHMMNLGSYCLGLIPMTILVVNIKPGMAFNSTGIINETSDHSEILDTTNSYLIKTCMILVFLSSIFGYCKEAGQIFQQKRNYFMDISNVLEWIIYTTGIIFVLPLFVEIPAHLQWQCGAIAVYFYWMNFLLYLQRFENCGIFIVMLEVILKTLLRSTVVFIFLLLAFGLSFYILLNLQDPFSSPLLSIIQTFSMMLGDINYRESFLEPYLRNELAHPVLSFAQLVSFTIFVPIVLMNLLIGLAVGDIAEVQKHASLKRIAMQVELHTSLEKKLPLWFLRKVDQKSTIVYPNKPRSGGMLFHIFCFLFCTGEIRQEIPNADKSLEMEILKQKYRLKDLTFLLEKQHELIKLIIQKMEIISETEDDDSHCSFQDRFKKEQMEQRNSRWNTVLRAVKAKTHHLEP

With Ruthenium red [RR], the IC50 is ~1800 nM.
